Data reported in the supplement of paper PMC10307832.

Legend:
Experiment in all cases: relative viability (nuclei count vs DMSO), 5 days (fraction); higher = more cells survive
Palbociclib + Pictilisib = compound: CC(=O)c1c(C)c2cnc(Nc3ccc(N4CCNCC4)cn3)nc2n(C2CCCC2)c1=O [Palbociclib] + CS(=O)(=O)N1CCN(Cc2cc3nc(-c4cccc5[nH]ncc45)nc(N4CCOCC4)c3s2)CC1 [Pictilisib] (partner 1 µM)
Procedure, shortened: (§1)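 After 5 days of treatment, lung cancer cells in 1536-well plates were fixed and stained in a single step (final 0.05% Triton X-100, 1% formaldehyde, 1 ug/ml Hoechst) and their nuclei counted on 4× images. Treatment had been applied by pin tool the day after seeding as one drug alone or as a fixed anchor-drug dose with five library-drug doses (not always all listed) in √10 steps. Relative viability is the nuclei count of treated wells divided by that of vehicle wells, and values are medians of duplicate plates.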

Palbociclib + Tozasertib = compound: CC(=O)c1c(C)c2cnc(Nc3ccc(N4CCNCC4)cn3)nc2n(C2CCCC2)c1=O [Palbociclib] + Cc1cc(Nc2cc(N3CCN(C)CC3)nc(Sc3ccc(NC(=O)C4CC4)cc3)n2)n[nH]1 [Tozasertib] (partner 0.1 µM)
Procedure, shortened: as §1

Palbociclib + Pemetrexed = compound: CC(=O)c1c(C)c2cnc(Nc3ccc(N4CCNCC4)cn3)nc2n(C2CCCC2)c1=O [Palbociclib] + Nc1nc2[nH]cc(CCc3ccc(C(=O)N[C@@H](CCC(=O)O)C(=O)O)cc3)c2c(=O)[nH]1 [Pemetrexed] (partner 0.2 µM)
Procedure, shortened: as §1

Palbociclib + Decitabine = compound: CC(=O)c1c(C)c2cnc(Nc3ccc(N4CCNCC4)cn3)nc2n(C2CCCC2)c1=O [Palbociclib] + Nc1ncn([C@H]2C[C@H](O)[C@@H](CO)O2)c(=O)n1 [Decitabine] (partner 2 µM)
Procedure, shortened: as §1

Row | Cell Line | relative viability (Palbociclib + Pictilisib; first compound 0.01 µM) | relative viability (Palbociclib + Pictilisib; first compound 0.03162 µM) | relative viability (Palbociclib + Pictilisib; first compound 0.1 µM) | relative viability (Palbociclib + Pictilisib; first compound 0.3162 µM) | relative viability (Palbociclib + Pictilisib; first compound 1 µM) | relative viability (Palbociclib + Tozasertib; first compound 0.01 µM) | relative viability (Palbociclib + Tozasertib; first compound 0.03162 µM) | relative viability (Palbociclib + Tozasertib; first compound 0.1 µM) | relative viability (Palbociclib + Tozasertib; first compound 0.3162 µM) | relative viability (Palbociclib + Tozasertib; first compound 1 µM) | relative viability (Palbociclib + Pemetrexed; first compound 0.01 µM) | relative viability (Palbociclib + Pemetrexed; first compound 0.03162 µM) | relative viability (Palbociclib + Pemetrexed; first compound 0.1 µM) | relative viability (Palbociclib + Pemetrexed; first compound 0.3162 µM) | relative viability (Palbociclib + Pemetrexed; first compound 1 µM) | relative viability (Palbociclib + Decitabine; first compound 0.01 µM) | relative viability (Palbociclib + Decitabine; first compound 0.03162 µM) | relative viability (Palbociclib + Decitabine; first compound 0.1 µM) | relative viability (Palbociclib + Decitabine; first compound 0.3162 µM) | relative viability (Palbociclib + Decitabine; first compound 1 µM)
1 | NCI-H3122 | 0.536 | 0.523 | 0.449 | 0.332 | 0.234 | 0.344 | 0.212 | 0.231 | 0.234 | 0.143 | 0.205 | 0.184 | 0.192 | 0.186 | 0.188 | 0.394 | 0.423 | 0.347 | 0.33 | 0.277
2 | PC-3 [JPC-3] | 0.778 | 0.647 | 0.56 | 0.677 | 0.494 | 0.918 | 0.778 | 0.823 | 0.774 | 0.596 | 1.14 | 1.06 | 0.952 | 0.878 | 0.428 | 0.804 | 0.713 | 0.76 | 0.782 | 0.607
3 | PC-14 | 0.764 | 0.653 | 0.579 | 0.537 | 0.254 | 0.589 | – | 0.523 | 0.55 | 0.4 | 0.143 | 0.142 | 0.137 | 0.148 | 0.158 | 0.329 | 0.217 | 0.224 | 0.27 | 0.205
4 | RERF-LC-KJ | 0.53 | 0.459 | 0.464 | 0.484 | 0.629 | 0.467 | 0.446 | 0.392 | 0.536 | 0.534 | 0.437 | 0.45 | 0.432 | 0.486 | 0.469 | 0.879 | 0.732 | 0.733 | 0.748 | 0.767
5 | SK-LU-1 | 0.559 | 0.474 | 0.445 | 0.383 | 0.286 | 0.334 | 0.33 | 0.266 | 0.251 | 0.228 | 1.02 | 0.96 | 0.836 | 0.753 | 0.556 | 0.644 | 0.659 | 0.6 | 0.639 | 0.505
6 | SK-MES-1 | 0.359 | 0.305 | 0.238 | 0.266 | 0.196 | 0.858 | 0.76 | 0.595 | 0.502 | 0.29 | 0.857 | 0.802 | 0.665 | 0.596 | 0.363 | 0.354 | 0.377 | 0.404 | 0.357 | 0.263
7 | SW 1573 | 0.447 | 0.389 | 0.322 | 0.327 | 0.289 | 0.151 | 0.185 | 0.167 | 0.148 | 0.163 | 0.773 | 0.729 | 0.646 | 0.681 | 0.461 | 0.573 | 0.455 | 0.598 | 0.479 | 0.326
8 | UMC-11 | 0.873 | 0.671 | 0.429 | 0.36 | 0.219 | 0.197 | 0.187 | 0.202 | 0.22 | 0.208 | 0.795 | 0.726 | 0.594 | 0.473 | 0.308 | 0.696 | 0.624 | 0.363 | 0.48 | 0.336
